Measurements: ChEMBL document CHEMBL6103613 (J Med Chem, 2025)
Values after ≈ are worked out from the molar mass of the structure shown.

How the values were obtained:
Format in all cases: functional
[1] = system: Staphylococcus aureus; assay: Antimicrobial activity against Staphylococcus aureus ATCC 25923 assessed as inhibition of visible bacterial growth incubated for 18 hrs by CLSI based analysis
[2] = system: Staphylococcus aureus; assay: Antimicrobial activity against methicillin-resistant Staphylococcus aureus ATCC 43300 assessed as inhibition of visible bacterial growth incubated for 18 hrs by CLSI based analysis
[3] = system: Staphylococcus aureus; assay: Antimicrobial activity against methicillin-resistant Staphylococcus aureus clinical isolate 2 assessed as inhibition of visible bacterial growth incubated for 18 hrs by CLSI based analysis
[4] = system: Staphylococcus aureus; assay: Antimicrobial activity against methicillin-resistant Staphylococcus aureus clinical isolate 3 assessed as inhibition of visible bacterial growth incubated for 18 hrs by CLSI based analysis
[5] = system: Staphylococcus aureus; assay: Antimicrobial activity against methicillin-resistant Staphylococcus aureus clinical isolate 4 assessed as inhibition of visible bacterial growth incubated for 18 hrs by CLSI based analysis
[6] = system: Bacillus subtilis; assay: Antimicrobial activity against Bacillus subtilis ATCC 23875 assessed as inhibition of visible bacterial growth incubated for 18 hrs by CLSI based analysis
[7] = system: Enterococcus faecalis; assay: Antimicrobial activity against Enterococcus faecalis ATCC 19433 assessed as inhibition of visible bacterial growth incubated for 18 hrs by CLSI based analysis
[8] = system: Enterococcus faecium; assay: Antimicrobial activity against vancomycin-resistant Enterococcus faecium assessed as inhibition of visible bacterial growth incubated for 18 hrs by CLSI based analysis
[9] = system: Enterococcus gallinarum; assay: Antimicrobial activity against Enterococcus gallinarum ATCC 49573 assessed as inhibition of visible bacterial growth incubated for 18 hrs by CLSI based analysis
[10] = system: Staphylococcus epidermidis; assay: Antimicrobial activity against Staphylococcus epidermidis ATCC 12228 assessed as inhibition of visible bacterial growth incubated for 18 hrs by CLSI based analysis
[11] = system: Staphylococcus aureus; assay: Antibacterial activity against methicillin-resistant Staphylococcus aureus infected in kunming mouse keratitis model assessed as log reduction in colony count at 5 mg/kg, ip measured upto 8 days; conditions: time <= 8 day
[12] = system: Staphylococcus aureus; assay: Drug resistance, ratio of MIC for Staphylococcus aureus after 6 passages to MIC for Staphylococcus aureus during first exposure
[13] = system: Staphylococcus aureus; assay: Drug resistance, ratio of MIC for Staphylococcus aureus after 12 passages to MIC for Staphylococcus aureus during first exposure
[14] = system: Staphylococcus aureus; assay: Drug resistance, ratio of MIC for Staphylococcus aureus after 15 passages to MIC for Staphylococcus aureus during first exposure
[15] = system: Staphylococcus aureus; assay: Drug resistance, ratio of MIC for Staphylococcus aureus after 21 passages to MIC for Staphylococcus aureus during first exposure

Compound	MIC [1]	MIC [2]	MIC [3]	MIC [4]	MIC [5]	MIC [6]	MIC [7]	MIC [8]	MIC [9]	MIC [10]	FC [11]	Ratio [12]	Ratio [13]	Ratio [14]	Ratio [15]
CC(=O)NC[C@H]1CN(c2ccc(N3CCOCC3)c(F)c2)C(=O)O1 [LINEZOLID]	1.56 µg/mL (≈ 4.62 µM)	1.56 µg/mL (≈ 4.62 µM)	3.13 µg/mL (≈ 9.28 µM)	1.56 µg/mL (≈ 4.62 µM)	1.56 µg/mL (≈ 4.62 µM)	1.56 µg/mL (≈ 4.62 µM)	1.56 µg/mL (≈ 4.62 µM)	1.56 µg/mL (≈ 4.62 µM)	1.56 µg/mL (≈ 4.62 µM)	0.39 µg/mL (≈ 1.16 µM)	0.864	–	–	–	–
CC1(C)S[C@@H]2[C@H](NC(=O)[C@H](N)c3ccc(O)cc3)C(=O)N2[C@H]1C(=O)O [AMOXICILLIN]	–	–	–	–	–	–	–	–	–	–	–	10	30	250	250
